The target in data set [1] is cyanophycin synthetase (CphA1) from Trichodesmium erythraeum IMS101 (Trichodesmium erythraeum IMS101). The experiment in a line: cryo-EM structure; single-particle cryo-EM of TeCphA1 in the apo, ATPγS-bound and substrate-bound states; 2-12 μM TeCphA1, Tris-HCl pH 8.0-8.2.
Data set [2] deals with T1, TeCphA1 (Trichodesmium erythraeum, UniProt Q113V7).
T1 construct: gene Tery_1965; full-length, C-terminal His6 tag (pET-22b(+), NdeI/XhoI), E. coli BL21(DE3); D2 homotetramer; N (1-161), G (162-487), M (488-876) domains
The experiment in a line: phosphate release, molybdenum blue colorimetry; Michaelis-Menten fit. The class given is biochemical. The conditions noted are these: one substrate varied; L-aspartate 5 mM, L-arginine 0.5 mM, (β-Asp-Arg)4 2 mM; 20 mM MgCl2, pH 8.2, 30°C; two ATP sites (G and M domains).

Data set [3] addresses T1, TeCphA1. The experiment in a line: cryo-EM structure, […] Å. The class given is binding. The note with it: 4 mM ATPγS, 20 mM MgCl2, pH 8.2; G and M domain sites; also in substrate-bound 7WAE (C1) and 7WAF (C2).
Data set [4] deals with T1, TeCphA1. The experiment in a line: cryo-EM structure, […] Å (C1). Type of data set: binding. The conditions noted are these: complex with ATPγS, (β-Asp-Arg)4, Mg2+; 100 mM L-aspartate, pH 8.2; G domain site, seen in chain D.
Substrate in data set [5]: N[C@@H](CC(=O)O)C(=O)O
The experiment in a line: purified protein. The note with it: one substrate varied, other substrates at ATP 4 mM, L-arginine 0.5 mM, (β-Asp-Arg)4 2 mM, 20 mM MgCl2, 20 mM KCl, pH 8.2, 30°C, positively cooperative, Hill fit.

The record followed here is PMC9427784, “Structural bases for aspartate recognition and polymerization efficiency of cyanobacterial cyanophycin synthetase” (Nature Communications, 2022).

As for “cyanophycin synthetase (CphA1) from Trichodesmium erythraeum IMS101 (enzyme)”, the stoichiometry N (usually a count of units in the complex or per binding partner) in data set [1] stood at 4.

As to `Nc1ncnc2c1ncn2[C@@H]1O[C@H](COP(=O)(O)OP(=O)(O)OP(=O)(O)O)[C@@H](O)[C@H]1O` [ATP], the “apparent Km” value in data set [2] is “we have determined the apparent Km value for ATP”.

For the molecule `Nc1ncnc2c1ncn2[C@@H]1O[C@H](COP(=O)(O)OP(=O)(O)OP(O)(O)=S)[C@@H](O)[C@H]1O` [ATPγS], the “cryo-EM structure, 2.96 Å” value in data set [3] is on record as 7WAD for TeCphA1 bound with ATPγS.

Regarding `N[C@@H](CC(=O)O)C(=O)O` [L-aspartate], the “cryo-EM structure, 2.64 Å (C1)” value in data set [4] was “the substrate aspartate was observed only in one protomer (chain D)”.

B1: TeCphA1 (Trichodesmium erythraeum IMS101) (protein)
chain: MKILKLQTLRGPNYWSIHRHKLVVMRLDLEDLYEKYTSDIPGFYKGLTEVLPSLVEHLCSPGVKGGFLTRVEKGTLIGHVIEHVAIELQELAGMPVGFGRTRETSTTGVFQVVIEYENEQAGRYAARAAVRLCQSIVDTGTYPATELQQDLEDLKELKNQASLGPSTEAIVKEAEARGIPWTQLGARFMIQFGYGVNQKKIQATLSNQTGILGVELACDKEGTKRILKDAGVPVPRGTVARYFDELQDAIEYVGGYPIVIKPLDGNHGRGITIDVKNWQEAEEAYDLARKASKTKTVIVERYYTGKDHRVLVVNGKVVAVAERVPAHVVGNGKSTIAELIEETNRDPQRGDGHDNILTRITVDKSALDILGKQGYSIDSIPLKGKKCFLRATANLSTGGIAVDRTDEIHPENVWLLSRVAKIIGLDIAGIDVVTEDISQPLREVEGVIVEVNAAPGFRMHVAPSRGLARNVAGAVMDMLFPGSKNGRIPILSVTGTNGKTTTTRLLAHIIKQTGKVVGYTTTDGTYIGEYLAETGDNTGPQSAHLILSDPTVEVAVLETARGGILRSGLGFSSCEVGIVLNVTADHLGIGDIDTIEQLAKLKSVVAESVMPKGYAVLNAEDPLVAAMADRVKGQVAYFSMDPNNELLLRHTEAGGLAAIYENGYISILKGDWTLRIEKAVNVPITMAGKAPFMIANALAACLAVFTQGVKIEHIRKGLSTFVASVDQTPGRMNMFNMGSYHALVDYAHNPASYEALGGFVRNWPGKRIGVVGGPGDRRDEDFVSLGELAADIFDEIIIKEDDDTRGRPRGNAAELICQGVKQFLNGIKNSESKATYESILDETAAINTALDRAPIDGLVVILPESVNRAISLIEGRHVIQDIELLQDSQREPKDQEVLKSSI
Regarding B1, the K0.5 in data set [5] is listed as 18.0 ± 1.1 mM.
